# Laboratory results as given in ChEMBL document CHEMBL4376876 (J Med Chem, 2020).
# Biological target: Enoyl-[acyl-carrier-protein] reductase [NADH] (Mycobacterium tuberculosis, UniProt P9WGR1, S94A)
row,Compound,IC50 [µM]
1,CC(C)[C@H]1OC(=O)[C@H](C)[C@H](O)[C@H](Cc2cccnc2)NC(=O)[C@@H](NC(=O)c2ncccc2O)[C@@H](C)OC1=O,32.8
2,CC[C@H]1OC(=O)[C@H](C)[C@H](O)[C@H](Cc2cccnc2)NC(=O)[C@@H](NC(=O)c2ncccc2O)[C@@H](C)OC1=O,127
3,CC[C@@H](C)[C@H]1OC(=O)[C@H](C)[C@H](O)[C@H](Cc2cccnc2)NC(=O)[C@@H](NC(=O)c2ncccc2O)[C@@H](C)OC1=O,31.5
4,C[C@@H]1C(=O)N[C@H](C2CCCCC2)C(=O)O[C@H](C)[C@H](NC(=O)c2ncccc2O)C(=O)N[C@@H](Cc2cccnc2)[C@@H]1O,291
5,C[C@H]1OC(=O)[C@@H](Cc2ccccc2)OC(=O)[C@H](C)[C@H](O)[C@H](Cc2cccnc2)NC(=O)[C@H]1NC(=O)c1ncccc1O,29.1
6,CC[C@H](C)[C@H]1OC(=O)[C@H](C)[C@H](O)[C@H](Cc2cccnc2)NC(=O)[C@@H](NC(=O)c2ncccc2O)[C@@H](C)OC1=O,87.2
